Measurements as given in patent US9221761B2, “Method for inhibition of deubiquitinating activity” (Vivolux AB, priority 2011, dated 2015).

What was measured:
HCT116 = assay: FMCA (Fluorometric Microculture Cytotoxicity Assay) cytotoxicity; type: cell-based; details: 72 hours of continuous compound exposure
Description: FIGS. 1a to 1o are diagrams illustrating induction of dose-dependent cytotoxicity after 72 hours of continuous compound exposure to the reporter cell line HCT-116 by embodiments of the compound of the invention, as measured FMCA (Fluorometric Microculture Cytotoxicity Assay), as well as absence of such induction by structurally related compounds not comprised by the invention. Treated cells were compared to untreated controls (survival index);
Determination of cell apoptosis and viability. For determination of apoptosis parental HCT-116 p53+/+ cells are treated with the increasing doses of the compound of the invention for 24 h. […] HCT-116 cells are seeded in 96-well microtiter plates at 10,000 cells per well and incubated overnight. Cells are treated with indicated drug for 24 h. At the end of the incubation period, NP40 is added to the tissue culture medium to 0.1% and 25 μl of the content of each well was assayed using the M30-Apoptosense® ELISA as previously described (31). Cell viability is determined by measuring acid phosphatase activity or using the FMCA method (32). For the acid phosphatase activity cells are seeded at 5000 cells per well in 96-well culture plates and incubated for 12 h at 37° C. Compounds are added to the cells in growth media and incubated for 72 h at 37° C. Cells are washed with 200 μl warm PBS. 100 μl of para-nitrophenyl phosphate (pNPP, 2 mg/ml) in Na acetate buffer pH 5 (NaAc 0.1 M, 0.1% Triton-X-100) is added per well. Cells are incubated for 2 h after which reaction was stopped by addition of 1N NaOH. Absorbance is measured at 405 nm. The dose-dependent cytotoxicity of a number of embodiments of the compound of the invention is illustrated in FIGS. 1a-1o.
For the FMCA assay cells are seeded in the drug-prepared 384-well plates using the pipetting robot Precision 2000 (Bio-Tek Instruments Inc., Winooski, Vt.). The plates are incubated for 72 h and then transferred to an integrated HTS SAIGAN Core System consisting of an ORCA robot (Beckman Coulter) with CO2 incubator (Cytomat 2C, Kendro, Sollentuna, Sweden), dispenser module (Multidrop 384, Titertek, Huntsville, Ala.), washer module (ELx 405, Bio-Tek Instruments Inc), delidding station, plate hotels, barcode reader (Beckman Coulter), liquid handler (Biomek 2000, Beckman Coulter) and a multipurpose reader (FLUOstar Optima, BMG Labtech GmbH, Offenburg, Germany) for automated FMCA. Survival index (SI) is defined as the fluorescence of test wells in percentage of controls with blank values subtracted.
FIGS. 3b, 3d, 3f are diagrams illustrating the cytotoxicity of compounds of the invention nos. 1546, 1547, and 1570 with a 7-membered ring moiety in comparison to structurally corresponding compounds not comprised by the invention with a 6-membered ring moiety. Their induction of dose-dependent cytotoxicity was determined after 72 hours of continuous compound exposure to the reporter cell line HCT-116. Treated cells were compared with untreated controls. Cytotoxicity is visualized as survival index (SI) over the range of about 90% SI to about 0% SI in dependence on compound concentration.

[1] = tested on: MelJuSo Ub-YFP reporter cell line; assay: Proteasome inhibition in reporter cell line, YFP accumulation in IncuCyte-FLR; type: cell-based; details: YFP accumulation measured for 48 hours; for MeJuSo-UB, lowest effective conc.: Table 2; for MeJuSo-UB, IncuCyte lowest effective conc.: Table 1
Description: Cell culture. MCF7 cells are maintained in MEM/10% fetal calf serum. HCT-116 p53+/+, p53−/−, Bcl-2+/+, PUMA−/− and BAX−/− cells are maintained in McCoy's 5A modified medium/10% fetal calf serum. The HCT-116 p53+/+, p53−/−, PUMA−/− and BAX−/− are generated as described (25). The HCT-116 Bcl-2+/+ cell line was generated by transfecting parental HCT-116 p53+/+ cells with pCEP4 Bcl-2 (Addgene plasmid 16461) (26) and isolating high expression clones. FaDu and LLC3 cells are maintained in DMEM high glucose medium supplemented with 10% fetal calf serum, Na pyruvate, Hepes and non-essential amino acids. 4T1.12B carcinoma cells are maintained in RPMI medium supplemented with 10% fetal calf serum. The proteasome reporter cell line MelJuSo Ub-YFP was generated as described (12). Cells were maintained in Dulbecco's Modified Eagle's Medium/10% fetal calf serum. […] The retinal epithelial cell line was generated as described (28). All cells are maintained at 37° C. in 5% CO2.
The compound of the invention induces proteasome inhibition. The reporter cell line MelJuSo Ub-YFP, which is engineered to accumulate yellow fluorescent protein (YFP) upon proteasome inhibition (12), was used for compound evaluation. The accumulation of YFP was measured for 48 hours in an IncuCyte-FLR system (Essen Bioscience, Essen, UK), which is an automated fluorescence microscope. Numbers of positive cells per field were used as a measure of proteasome inhibition.

O=C(O)C(F)(F)F.O=C1/C(=C/c2ccc([N+](=O)[O-])cc2)CCN(C(=O)[C@H]2CCCN2)C/C1=C\c1ccc([N+](=O)[O-])cc1 [Compound 1505, (2R)-2-{[(3E,5E)-3,5-bis[(4-nitrophenyl)methylidene]-4-oxoazepan-1-carbonyl}pyrrolidinium trifluoroacetate] gave an IC50 (HCT116; Table 2) of 5200 nM.
For O=C(O)C(F)(F)F.O=C1/C(=C/c2ccc([N+](=O)[O-])cc2)CCN(C(=O)[C@H]2CCCN2)C/C1=C\c1ccc([N+](=O)[O-])cc1 [Compound 1505], the “MeJuSo-UB, lowest effective conc.” value [1] was 16 µM.
CCOC(=O)CCC(=O)N1CC/C(=C\c2ccc([N+](=O)[O-])cc2)C(=O)/C(=C/c2ccc([N+](=O)[O-])cc2)C1.O=C(O)C(F)(F)F [Compound 1507, (3E,5E)-1-(4-ethoxy-4-oxobutanoyl)-3,5-bis[(4-nitrophenyl)methylidene]-4-oxoazepan-1-ium trifluoroacetate] was tested, and the IC50 (HCT116; Homo sapiens, HCT-116, Table 2) was 4400 nM and the “MeJuSo-UB, lowest effective conc.” value [1] was 8 µM.
With O=C1/C(=C/c2ccccc2)CCNC/C1=C\c1ccccc1 [Compound 1516, (3E,5E)-3,5-Bis(phenylmethylidene)azepan-4-one] the “MeJuSo-UB, IncuCyte lowest effective conc.” value [1] was 1.2 µM.
In the case of O=C1/C(=C/c2ccc(Cl)cc2)CCNC/C1=C\c1ccc(Cl)cc1 [Compound 1518, (3E,5E)-3,5-bis[(4-chlorophenyl)methylidene]azepan-4-one], the “MeJuSo-UB, IncuCyte lowest effective conc.” value [1] is reported as 1.6 µM.
For O=C1C(=Cc2ccc(Cl)cc2)CCN(C(=O)C2CCC2)CC1=Cc1ccc(Cl)cc1 [Compound 1527], the “MeJuSo-UB, lowest effective conc.” value [1] was 2 µM.
For O=C1C(=Cc2cccc([N+](=O)[O-])c2)CCNCC1=Cc1cccc([N+](=O)[O-])c1 [Compound 1535], the IC50 (HCT116; Table 1) was 5900 nM.
With O=C1C(=Cc2ccccc2[N+](=O)[O-])CCNCC1=Cc1ccccc1[N+](=O)[O-] [Compound 1536] the IC50 (HCT116; Table 1) was 6900 nM.
Molecule O=C1C(=Cc2ccc([N+](=O)[O-])cc2)CCNCC1=Cc1ccc([N+](=O)[O-])cc1 [Compound 1537] has an IC50 (HCT116; Table 1) of 4100 nM.
Molecule O=C1/C(=C/c2cccc([N+](=O)[O-])c2)CCNC/C1=C\c1ccccc1 [Compound 1560, (3E,5E)-5-[(3-nitrophenyl)methylidene]-3-(phenylmethylidene)azepan-4-one] has an IC50 (HCT116; Homo sapiens, HCT-116, Table 1) of 1000 nM.
O=C1C(=Cc2ccc(F)cc2)CCNCC1=Cc1ccc(F)cc1 [Compound 1561] was tested, and the IC50 (HCT116; Table 1) was 1000 nM and the “MeJuSo-UB, IncuCyte lowest effective conc.” value [1] was 1 µM.
O=C1C(=Cc2ccc(F)c([N+](=O)[O-])c2)CCNCC1=Cc1ccc(F)c([N+](=O)[O-])c1 [Compound 1562] was tested, and the IC50 (HCT116; Table 1) was 500 nM and the “MeJuSo-UB, IncuCyte lowest effective conc.” value [1] was 0.25 µM.
With CN1CC/C(=C\c2ccc([N+](=O)[O-])cc2)C(=O)/C(=C/c2ccc([N+](=O)[O-])cc2)C1 [Compound 1563, (3E,5E)-1-methyl-3,5-bis[(4-nitrophenyl)methylidene]azepan-4-one] the IC50 (HCT116; Homo sapiens, HCT-116, Table 1) was 1500 nM and the “MeJuSo-UB, IncuCyte lowest effective conc.” value [1] was 0.5 µM.
In the case of CN1CCC(=Cc2ccc(F)cc2)C(=O)C(=Cc2ccc(F)cc2)C1 [Compound 1564], the IC50 (HCT116; Table 1) is reported as 900 nM and the “MeJuSo-UB, IncuCyte lowest effective conc.” value [1] is reported as 16 µM.
With CN1CCC(=Cc2ccc(F)c([N+](=O)[O-])c2)C(=O)C(=Cc2ccc(F)c([N+](=O)[O-])c2)C1 [Compound 1565] the IC50 (HCT116; Table 1) was 1500 nM and the “MeJuSo-UB, IncuCyte lowest effective conc.” value [1] was 0.5 µM.
For CN1CCC(=Cc2cccc([N+](=O)[O-])c2)C(=O)C(=Cc2cccc([N+](=O)[O-])c2)C1 [Compound 1566], the IC50 (HCT116; Table 1) was 2300 nM and the “MeJuSo-UB, IncuCyte lowest effective conc.” value [1] was 0.5 µM.
CC(=O)N1CCC(=Cc2ccc([N+](=O)[O-])cc2)C(=O)C(=Cc2ccc([N+](=O)[O-])cc2)C1 [Compound 1567] was tested, and the IC50 (HCT116; Table 2) was 600 nM and the “MeJuSo-UB, lowest effective conc.” value [1] was 0.5 µM.
With C=CC(=O)N1CCC(=Cc2ccc(F)cc2)C(=O)C(=Cc2ccc(F)cc2)C1 [Compound 1568] the IC50 (HCT116; Table 2) was 1500 nM and the “MeJuSo-UB, lowest effective conc.” value [1] was 2 µM.
With C=CC(=O)N1CCC(=Cc2ccc(F)cc2)C(=O)C(=Cc2ccc(F)cc2)C1 [Compound 1569] the IC50 (HCT116; Table 2) was 2000 nM and the “MeJuSo-UB, lowest effective conc.” value [1] was 4 µM.
With C=CC(=O)N1CCC(=Cc2cccc([N+](=O)[O-])c2)C(=O)C(=Cc2cccc([N+](=O)[O-])c2)C1 [Compound 1572] the IC50 (HCT116; Table 2) was 2500 nM and the “MeJuSo-UB, lowest effective conc.” value [1] was 0.5 µM.
CCCN1CC/C(=C\c2ccc(F)cc2)C(=O)/C(=C/c2ccc(F)cc2)C1 [Compound 1574, (3E,5E)-3,5-bis[(4-fluorophenyl)methylidene]-1-propylazepan-4-one] was tested, and the IC50 (HCT116; Homo sapiens, HCT-116, Table 1) was 2800 nM and the “MeJuSo-UB, IncuCyte lowest effective conc.” value [1] was 0.5 µM.
With COc1ccc(/C=C2\CNCC/C(=C\c3ccc([N+](=O)[O-])cc3)C2=O)cc1 [Compound 1575, (3E,5E)-3-[(4-methoxyphenyl)methylidene]-5-[(4-nitrophenyl)methylidene]azepan-4-one] the IC50 (HCT116; Homo sapiens, HCT-116, Table 1) was 2100 nM and the “MeJuSo-UB, IncuCyte lowest effective conc.” value [1] was 1 µM.
With COc1ccc(C=C2CNCCC(=Cc3ccc(F)cc3)C2=O)cc1 [Compound 1576] the IC50 (HCT116; Table 1) was 1600 nM and the “MeJuSo-UB, IncuCyte lowest effective conc.” value [1] was 8 µM.
COc1ccc(/C=C2\CN(C)CC/C(=C\c3ccc(F)cc3)C2=O)cc1 [Compound 1577, (3E,5E)-5-[(4-fluorophenyl)methylidene]-3-[(4-methoxyphenyl)methylidene]-1-methylazepan-4-one] was tested, and the IC50 (HCT116; Homo sapiens, HCT-116, Table 1) was 4900 nM and the “MeJuSo-UB, IncuCyte lowest effective conc.” value [1] was 8 µM.
In the case of COc1ccc(C=C2CN(C(C)=O)CCC(=Cc3ccc(F)cc3)C2=O)cc1 [Compound 1578], the IC50 (HCT116; Table 2) is reported as 7000 nM and the “MeJuSo-UB, lowest effective conc.” value [1] is reported as 8 µM.
In the case of C=CC(=O)N1CCC(=Cc2ccc([N+](=O)[O-])cc2)C(=O)C(=Cc2ccc(OC)cc2)C1 [Compound 1580], the IC50 (HCT116; Table 2) is reported as 1500 nM and the “MeJuSo-UB, lowest effective conc.” value [1] is reported as 8 µM.
COc1ccc(C=C2CN(C(C)=O)CCC(=Cc3ccc([N+](=O)[O-])cc3)C2=O)cc1 [Compound 1581] was tested, and the IC50 (HCT116; Table 2) was 7200 nM and the “MeJuSo-UB, lowest effective conc.” value [1] was 8 µM.
O=C1C(=Cc2ccc(F)cc2)CCNCC1=Cc1ccc(Cl)cc1 [Compound 1582] was tested, and the IC50 (HCT116; Table 1) was 1700 nM and the “MeJuSo-UB, IncuCyte lowest effective conc.” value [1] was 2 µM.
In the case of O=C1/C(=C/c2ccc(Cl)cc2)CCNC/C1=C\c1ccc([N+](=O)[O-])cc1 [Compound 1583, (3E,5E)-5-[(4-chlorophenyl)methylidene]-3-[(4-nitrophenyl)methylidene]azepan-4-one], the IC50 (HCT116; Homo sapiens, HCT-116, Table 1) is reported as 3300 nM and the “MeJuSo-UB, IncuCyte lowest effective conc.” value [1] is reported as 2 µM.
With O=C1C(=Cc2ccc(Cl)cc2)CCNCC1=Cc1ccc([N+](=O)[O-])cc1 [Compound 1584] the IC50 (HCT116; Table 1) was 1800 nM and the “MeJuSo-UB, IncuCyte lowest effective conc.” value [1] was 2 µM.
In the case of O=C1C(=Cc2ccc(F)cc2)CCNCC1=Cc1ccc([N+](=O)[O-])cc1 [Compound 1585], the IC50 (HCT116; Table 1) is reported as 1500 nM and the “MeJuSo-UB, IncuCyte lowest effective conc.” value [1] is reported as 2 µM.
With O=C1C(=Cc2ccc(Cl)cc2)CCNCC1=Cc1ccc(F)cc1 [Compound 1586] the IC50 (HCT116; Table 1) was 1100 nM and the “MeJuSo-UB, IncuCyte lowest effective conc.” value [1] was 0.5 µM.
For CN1CCC(=Cc2ccc(F)cc2)C(=O)C(=Cc2ccc([N+](=O)[O-])cc2)C1 [Compound 1587], the IC50 (HCT116; Table 1) was 3000 nM and the “MeJuSo-UB, IncuCyte lowest effective conc.” value [1] was 1 µM.
